“Also recorded” adds a separate entry of the source.
Assays:
[1] = test system: germline ε promoter; experiment: GFP reporter assay of IL-4 induced ε promoter-driven transcription in naive A5T4 cells (phenotype transfer); format: cell-based; details: for activity in blocking epsilon promoter transcription (GFP reporter) when presented in the mutant intein context: mutant intein construct; for activity in blocking epsilon promoter transcription (GFP reporter) when presented in the mutant intein context / Mutant Reporter Ratio (± std) / Wild-Type Reporter Ratio (± std): naive A5T4 cells; for Mutant Reporter Ratio (± std): mutant intein construct (non-cyclic, splicing-deficient), IL-4 stimulated, GFP fluorescence; for Wild-Type Reporter Ratio (± std): wild-type intein construct (cyclic peptide), IL-4 30 U/ml, GFP fluorescence BFP−/BFP+, average of 3 values
Excerpt: To establish the A5T4 reporter cell line, BJAB cells were infected with a retroviral vector containing an IL-4 responsive 600 bp fragment of the epsilon promoter (Pε) followed by a fusion nucleic acid encoding HBEGF-2a-GFP and a polyadenylation sequence cloned in the reverse orientation into pCGSin (Lorens et al., 2000, Mol. Ther. 1:438-447). Infected cells were induced with IL-4 and single cell sorted by FACS for GFP reporter expression. One of the cell clones identified with the desired profile was designated A5. This cell line was infected with the CtTAIH retroviral vector expressing tTA-VP16 ires hygromycin phosphotranferase gene (Lorens et al., 2000, Virology 272:7) selected with hygromycin and single cell cloned. The clone selected for the screening cell line was characterized for tetracycline regulation and was designated A5T4.
Referring to FIG. 9 or 10, after single cell clones had expanded, cells were replica-plated and grown in the presence or absence of 100 ng/ml Dox for 4 days. Both plates were then stimulated with IL-4 (30 U/ml) and, after 3 more days, both populations were analyzed by FACS to measure GFP fluorescence. FACS data were converted to reporter ratios, which are defined as the ratio of the geometric mean of GFP fluorescence of the +IL-4/+Dox (peptide off) population over the geometric mean of the +IL-4/−Dox (peptide on) population. Cells expressing a cyclic peptide that inhibits germline ε transcription have reporter ratios of >1.1, typically >1.12, >1.13, >1.14 or >1.15.
Phoenix packaging cells were transfected with the retroviral vector illustrated in FIG. 6A encoding a particular cyclic peptide as described in WO 97/27213. Naïve A5T4 cells were infected with the resultant retrovirons and grown for three days. The infected cells (BFP^+) were stimulated with IL-4 (30 U/ml) and, after three days, were assessed by FACS for BFP and GFP fluorescence.
The GFP fluorescence data corresponding to the BFP^−/BFP^+in the presence of IL-4 stimulation were obtained for 34 clones and reporter ratios were calculated therefrom. […] Three others had reporter wt ratios in the range of about 1.12-1.2. The names of the clones, sequences of the regions of the polynucleotides encoding the cyclic peptides SEQ ID NOS:1-23, the sequences of the expressed cyclic peptides SEQ ID NOS:1-23 and their respective reporter ratios are provided in TABLE 1, below (“wild-type” reporter ratios; each reporter ratio is the average of 3 values):
As discussed previously, intein splicing is dependent upon the presence of nucleophilic residues at the splice junctions (underlined in FIG. 6A; see Perler & Adam, 2000, Curr. Opin. Biotechnol. 11:377-383). To confirm that the inhibitory activity of the clones of TABLE 1 was due to the expression of a cyclic peptide, mutants were created that lacked the ability to catalyze the splicing reaction due to the replacement of these three critical underlined nucleophilic residues with alanines. These mutants (illustrated in FIG. 6B) were then used to infect naive A5T4 cells as described above.

[2] = test system: endogenous germline ε promoter; experiment: Quantitative real time PCR (Taqman) of endogenous germline ε transcript in A5T4 cells; format: cell-based; details: mutant intein context, +IL-4
Experimental: The ability of cyclic peptides SEQ ID NOS:1-20 to inhibit transcription of an endogenous germline ε promoter was confirmed using quantitative real time PCR (Taqman®; Applied Biosystems, Foster City, Calif.). Briefly, A5T4 cells were infected with retrovirus capable of expressing the cyclic peptides (prepared as described above). Cells were first sorted for BFP to ensure that they were retrovirally infected. Several different assay conditions were tested: −Dox/-IL-4, −Dox/+IL-4, +Dox/-IL-4, +Dox/+IL-4. All experiments were conducted in triplicate. BFP positive sorted cells were thereafter maintained in Dox (peptide off). To obtain the −Dox condition, cells were washed 2× with media and maintained in Dox-free culture for 72 hours. Cells in +/−Dox were split to 50,000 cells per ml. The following day, IL-4 was added (30 units/ml) and cells were incubated for 3 days before FACS analysis and pelleting for RNA extraction. The primers and probe used were as follows (the probe was labeled at the 5′-end with Fam and at the 3′-end with Tamra):
The probe spans a splice junction and thus will not detect contaminating DNA in the reaction assay. […] The epsilon inhibition ratio R was calculated by dividing the transcript expression values in the presence of Dox and IL-4 (+IL-4/+Dox) by values in the absence of Dox and presence of IL-4(+IL-4/−Dox). […]

| Substance | activity in blocking epsilon promoter transcription (GFP reporter) when presented in the mutant intein context [1] | Mutant Reporter Ratio (± std) [1] | Wild-Type Reporter Ratio (± std) [1] | block of endogenous ε-transcription [2] | inhibition of ε-promoter induction ([1]; net increase of geometric mean GFP fluorescence following IL-4 stimulation, BFP+ vs uninfected population, wild-type intein) [%] |
| --- | --- | --- | --- | --- | --- |
| cyclo(S A R F V) | decrease in activity | 1.43 ± 0.03 | 1.52 ± 0.04 |  |  |
| cyclo(S D H S Q) | inactive | 1.06 ± 0.06 | 1.20 ± 0.04 |  |  |
| cyclo(S E M F S I Q) | inactive | 1.13 ± 0.03 | 1.28 ± 0.03 |  |  |
| cyclo(S F G R S) | inactive | 1.08 ± 0.06 | 1.20 ± 0.02 |  |  |
| cyclo(S F V T W) | decrease in activity | 1.25 ± 0.06 | 1.46 ± 0.12 |  |  |
| cyclo(S G A D S) | inactive | 1.08 ± 0.05 | 1.23 ± 0.02 |  |  |
| cyclo(S L N R I) | remained active | 1.40 ± 0.08 | 1.45 ± 0.07 |  |  |
| cyclo(S N F T F) | inactive; also recorded: did not strongly block | 1.08 ± 0.05 | 1.28 ± 0.05 | clearly blocked |  |
| cyclo(S N I P Q) | inactive | 1.10 ± 0.02 | 1.20 ± 0.01 |  |  |
| cyclo(S P W K L V G) | inactive | 1.02 ± 0.06 | 1.27 ± 0.03 |  |  |
| cyclo(S R N W S H) | inactive | 1.06 ± 0.04 | 1.18 ± 0.04 |  |  |
| cyclo(S R R D R I) | inactive | 1.08 ± 0.04 | 1.31 ± 0.03 |  |  |
| cyclo(S R R H C C H) |  | 1.02 ± 0.03 | 1.09 ± 0.03 |  |  |
| cyclo(S R V E I) | No significant difference; also recorded: inactive | 1.06 ± 0.06 | 1.53 ± 0.16 |  | 51 |
| cyclo(S S C M R) |  | 1.20 ± 0.12 | 1.12 ± 0.03 |  |  |
| cyclo(S S F T) |  | 1.05 ± 0.04 | 1.10 ± 0.03 |  |  |
| cyclo(S S L R W) | decrease in activity | 1.21 ± 0.02 | 1.31 ± 0.05 |  |  |
| cyclo(S T G P R) | remained active | 1.18 ± 0.04 | 1.19 ± 0.03 |  |  |
| cyclo(S V I E Q) | decrease in activity | 1.14 ± 0.04 | 1.22 ± 0.04 |  |  |
| cyclo(S V V T R) | remained active | 1.26 ± 0.03 | 1.19 ± 0.03 |  |  |
| cyclo(S W A Q A) | inactive | 1.10 ± 0.04 | 1.25 ± 0.02 |  |  |
| cyclo(S Y F T S C W) | decrease in activity | 1.27 ± 0.01 | 1.36 ± 0.07 |  |  |
| cyclo(S Y S Q) | inactive | 1.07 ± 0.01 | 1.18 ± 0.01 |  |  |
